Assays:
[1] = Specific surface area by the BET method with N2 adsorption; assay type: physicochemical; settings: pre-treatment drying at 150° C. for 20 hours
Procedure: Using an Autosorb-6B manufactured by Quantachrome Instruments as the measurement apparatus, the specific surface area was determined by the BET method with N2 adsorption.

[2] = assay type: physicochemical
Text: When mixing the salt of pyrroloquinoline quinone with the dispersion medium, the salt of pyrroloquinoline quinone may be added to the dispersion medium, the dispersion medium may be added to the salt of pyrroloquinoline quinone, or the salt of pyrroloquinoline quinone and the disperse medium may be added into separate vessels. Preferably, the salt of pyrroloquinoline quinone can be added to the dispersion medium. Preferably, the concentration of the salt of pyrroloquinoline quinone here is the same or higher than the solubility. The “solubility” as used herein refers to the extent to which a solute dissolves in a solvent, and can be expressed by the concentration of the solute in the saturated solution. The solubility of the salt of pyrroloquinoline quinone can be suitably determined by the temperature of the mixture.

[3] = Dissolution test in water, monitored by absorption at 450 nm; assay type: physicochemical; settings: 1.3 mg PQQ powder in 2 mL water, room temperature; time to complete dissolution calculated from gradient of concentration change
Procedure: In Examples and Comparative Examples, UV measurements were performed using a HITACHI U-2000 Spectrophotometer. […] To an acrylic cell for UV measurement, 1.3 mg of the PQQ powder was added, followed by the addition of 2 mL of water. […] The dissolution in water was monitored by absorption at 450 nm at room temperature. Absorbance measurement was performed for one hour, and the duration until the complete dissolution was calculated from the gradient of change in the concentration.

specific surface area [1]: 2.9 m^2/g
solubility in water [2]: 0.299 g per 100 g of water
Dissolution time [3]: 10 min
Compound: O=C(O)c1cc(C(=O)O)c2c(n1)C(=O)C(=O)c1cc(C(=O)O)[nH]c1-2 [Comparative Example 1, Pyrroloquinoline quinone disodium]

Source: patent US9012521B2, “Pyrroloquinoline quinone gel” (Mitsubishi Gas Chemical Company, Inc., priority 2010, dated 2015)
